Laboratory results: patent publication US9931327B2, “Derivatives of 1-phenyl-2-pyridinyl alkyl alcohols as phosphodiesterase inhibitors” (Chiesi Farmaceutici S.p.A., priority 2011, dated 2018)

Each compound was assayed on LPS-induced TNF-α release in peripheral blood mononuclear cells (PBMCs) (assay: In vitro determination of PDE4 inhibitory activity in the PBMCs assay (LPS-induced TNF-α release)). Details: PBMC; human PBMCs, LPS 3 ng/ml, 18 hours, TNF-α by ELISA; read-out: PDE4 inhibition (IC50, 50% inhibition of LPS-induced TNF-α release).
Assay type: cell-based, human
In short: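 Cryopreserved human PBMCs (10^5 cells/well) pre-incubated 30 min with compound (10^−12 to 10^−6 M or 10^−3 to 10^−7 M), then stimulated with LPS 3 ng/ml for 18 h at 37 °C. TNF-α in medium by ELISA; IC50 as mean ± 95% confidence limits.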
`COc1cccc(S(=O)(=O)N2CCS[C@H]2C(=O)O[C@@H](Cc2c(Cl)c[n+]([O-])cc2Cl)c2ccc(OC(F)F)c(OCC3CC3)c2)c1` [Compound 103, 3,5-dichloro-4-((S)-2-(3-(cyclopropylmethoxy)-4-(difluoromethoxy)phenyl)-2-((S)-3-(3-methoxyphenylsulfonyl)thiazolidine-2-carbonyloxy)ethyl)pyridine 1-oxide] showed an IC50 of 0.1 to 1 nM.
Compound `O=C(O[C@@H](Cc1c(Cl)c[n+]([O-])cc1Cl)c1ccc(OC(F)F)c(OCC2CC2)c1)[C@@H]1SCCN1S(=O)(=O)c1cccc(OC(F)(F)F)c1` [Compound 104, 3,5-dichloro-4-((S)-2-(3-(cyclopropylmethoxy)-4-(difluoromethoxy)phenyl)-2-((S)-3-(3-(trifluoromethoxy)phenylsulfonyl)thiazolidine-2-carbonyloxy)ethyl)pyridine 1-oxide] has an IC50 of 0.1 to 1 nM.
`O=C(O[C@@H](Cc1c(Cl)c[n+]([O-])cc1Cl)c1ccc(OC(F)F)c(OCC2CC2)c1)[C@@H]1SCCN1S(=O)(=O)c1ccc(N2CCOCC2)nc1` [Compound 105, 3,5-dichloro-4-((S)-2-(3-(cyclopropylmethoxy)-4-(difluoromethoxy)phenyl)-2-((S)-3-(6-morpholinopyridin-3-ylsulfonyl)thiazolidine-2-carbonyloxy)ethyl)pyridine 1-oxide] showed an IC50 of 0.1 to 1 nM.
In the case of `COc1cc(C)ccc1S(=O)(=O)N1CCS[C@H]1C(=O)O[C@@H](Cc1c(Cl)c[n+]([O-])cc1Cl)c1ccc(OC(F)F)c(OCC2CC2)c1` [Compound 106, 3,5-dichloro-4-((S)-2-(3-(cyclopropylmethoxy)-4-(difluoromethoxy)phenyl)-2-((S)-3-(2-methoxy-4-methylphenylsulfonyl)thiazolidine-2-carbonyloxy)ethyl)pyridine 1-oxide], the IC50 is reported as under 0.1 nM.
Work on `Cc1nc(C)c(S(=O)(=O)N2CCS[C@H]2C(=O)O[C@@H](Cc2c(Cl)c[n+]([O-])cc2Cl)c2ccc(OC(F)F)c(OCC3CC3)c2)s1` [Compound 107, 3,5-dichloro-4-((S)-2-(3-(cyclopropylmethoxy)-4-(difluoromethoxy)phenyl)-2-((S)-3-(2,4-dimethylthiazol-5-ylsulfonyl)thiazolidine-2-carbonyloxy)ethyl)pyridine 1-oxide] yielded an IC50 of under 0.1 nM.
In the case of `CN1CCOc2ccc(S(=O)(=O)N3CCS[C@H]3C(=O)O[C@@H](Cc3c(Cl)c[n+]([O-])cc3Cl)c3ccc(OC(F)F)c(OCC4CC4)c3)cc21` [Compound 108, 3,5-dichloro-4-((S)-2-(3-(cyclopropylmethoxy)-4-(difluoromethoxy)phenyl)-2-((S)-3-(4-methyl-3,4-dihydro-2H-benzo[b][1,4]oxazin-6-ylsulfonyl)thiazolidine-2-carbonyloxy)ethyl)pyridine 1-oxide], the IC50 is reported as 0.1 to 1 nM.
Work on `CS(=O)(=O)c1ccc(S(=O)(=O)N2CCS[C@H]2C(=O)O[C@@H](Cc2c(Cl)c[n+]([O-])cc2Cl)c2ccc(OC(F)F)c(OCC3CC3)c2)cc1` [Compound 109, 3,5-dichloro-4-((S)-2-(3-(cyclopropylmethoxy)-4-(difluoromethoxy)phenyl)-2-((S)-3-(4-(methylsulfonyl)phenylsulfonyl)thiazolidine-2-carbonyloxy)ethyl)pyridine 1-oxide] yielded an IC50 of under 0.1 nM.
Compound `COc1ccc(S(=O)(=O)N2CCS[C@H]2C(=O)O[C@@H](Cc2c(Cl)c[n+]([O-])cc2Cl)c2ccc(OC(F)F)c(OCC3CC3)c2)cc1` [Compound 110, 3,5-dichloro-4-((S)-2-(3-(cyclopropylmethoxy)-4-(difluoromethoxy)phenyl)-2-((S)-3-(4-methoxyphenylsulfonyl)thiazolidine-2-carbonyloxy)ethyl)pyridine 1-oxide] has an IC50 of 0.1 to 1 nM.
`O=C(O[C@@H](Cc1c(Cl)c[n+]([O-])cc1Cl)c1ccc(OC(F)F)c(OCC2CC2)c1)[C@@H]1CCCCN1S(=O)(=O)c1ccc(N2CCOCC2)nc1` [Compound 111, 3,5-dichloro-4-((S)-2-(3-(cyclopropylmethoxy)-4-(difluoromethoxy)phenyl)-2-((S)-1-(6-morpholinopyridin-3-ylsulfonyl)piperidine-2-carbonyloxy)ethyl)pyridine 1-oxide] was tested, and the IC50 was 0.1 to 1 nM.
In the case of `CN(C)S(=O)(=O)c1cccc(S(=O)(=O)N2CCCC[C@H]2C(=O)O[C@@H](Cc2c(Cl)c[n+]([O-])cc2Cl)c2ccc(OC(F)F)c(OCC3CC3)c2)c1` [Compound 113, 3,5-dichloro-4-((S)-2-(3-(cyclopropylmethoxy)-4-(difluoromethoxy)phenyl)-2-((S)-1-(3-(N,N-dimethylsulfamoyl)phenylsulfonyl)piperidine-2-carbonyloxy)ethyl)pyridine 1-oxide], the IC50 is reported as under 0.1 nM.
`O=C(O[C@@H](Cc1c(Cl)c[n+]([O-])cc1Cl)c1ccc(OC(F)F)c(OCC2CC2)c1)[C@@H]1CCCCN1S(=O)(=O)c1ccccc1` [Compound 114, 3,5-dichloro-4-((S)-2-(3-(cyclopropylmethoxy)-4-(difluoromethoxy)phenyl)-2-((S)-1-(phenylsulfonyl)piperidine-2-carbonyloxy)ethyl)pyridine 1-oxide] gave an IC50 of 0.1 to 1 nM.
With `COc1ccc(OC)c(S(=O)(=O)N2CCS[C@H]2C(=O)O[C@@H](Cc2c(Cl)c[n+]([O-])cc2Cl)c2ccc(OC(F)F)c(OCC3CC3)c2)c1` [Compound 115, 3,5-dichloro-4-((S)-2-(3-(cyclopropylmethoxy)-4-(difluoromethoxy)phenyl)-2-((S)-3-(2,5-dimethoxyphenylsulfonyl)thiazolidine-2-carbonyloxy)ethyl)pyridine 1-oxide] the IC50 was under 0.1 nM.
With `Cn1ccnc1S(=O)(=O)N1CCCC[C@H]1C(=O)O[C@@H](Cc1c(Cl)c[n+]([O-])cc1Cl)c1ccc(OC(F)F)c(OCC2CC2)c1` [Compound 116, 3,5-dichloro-4-((S)-2-(3-(cyclopropylmethoxy)-4-(difluoromethoxy)phenyl)-2-((S)-1-(1-methyl-1H-imidazol-2-ylsulfonyl)piperidine-2-carbonyloxy)ethyl)pyridine 1-oxide] the IC50 was under 0.1 nM.
With `CC(=O)c1cccc(S(=O)(=O)N2CCS[C@H]2C(=O)O[C@@H](Cc2c(Cl)c[n+]([O-])cc2Cl)c2ccc(OC(F)F)c(OCC3CC3)c2)c1` [Compound 117, 4-((S)-2-((S)-3-(3-acetylphenylsulfonyl)thiazolidine-2-carbonyloxy)-2-(3-(cyclopropylmethoxy)-4-(difluoromethoxy)phenyl)ethyl)-3,5-dichloropyridine 1-oxide] the IC50 was 0.1 to 1 nM.
With `CNS(=O)(=O)c1cccc(S(=O)(=O)N2CCSC2C(=O)O[C@@H](Cc2c(Cl)c[n+]([O-])cc2Cl)c2ccc(OC(F)F)c(OCC3CC3)c2)c1` (stereo partly drawn) [Compound 118, 3,5-dichloro-4-((2S)-2-(3-(cyclopropylmethoxy)-4-(difluoromethoxy)phenyl)-2-(3-(3-(N-methylsulfamoyl)phenylsulfonyl)thiazolidine-2-carbonyloxy)ethyl)pyridine 1-oxide] the IC50 was under 0.1 nM.
Work on `Cn1cnc(S(=O)(=O)N2CCS[C@H]2C(=O)O[C@@H](Cc2c(Cl)c[n+]([O-])cc2Cl)c2ccc(OC(F)F)c(OCC3CC3)c2)c1` [Compound 119, 3,5-dichloro-4-((S)-2-(3-(cyclopropylmethoxy)-4-(difluoromethoxy)phenyl)-2-((S)-3-(1-methyl-1H-imidazol-4-ylsulfonyl)thiazolidine-2-carbonyloxy)ethyl)pyridine 1-oxide] yielded an IC50 of under 0.1 nM.
Work on `CN(C)C(=O)c1cccc(S(=O)(=O)N2CCN(CC(=O)O[C@@H](Cc3c(Cl)c[n+]([O-])cc3Cl)c3ccc(OC(F)F)c(OCC4CC4)c3)CC2)c1` [Compound 121, (S)-3,5-dichloro-4-(2-(3-(cyclopropylmethoxy)-4-(difluoromethoxy)phenyl)-2-(2-(4-(3-(dimethylcarbamoyl)phenylsulfonyl)piperazin-1-yl)acetoxy)ethyl)pyridine 1-oxide] yielded an IC50 of 0.1 to 1 nM.
`COc1ccc(S(=O)(=O)N2CCSC2C(=O)O[C@@H](Cc2c(Cl)c[n+]([O-])cc2Cl)c2ccc(OC(F)F)c(OCC3CC3)c2)cc1C(=O)N(C)C` (stereo partly drawn) [Compound 123, 3,5-dichloro-4-((2S)-2-(3-(cyclopropylmethoxy)-4-(difluoromethoxy)phenyl)-2-(3-(3-(dimethylcarbamoyl)-4-methoxyphenylsulfonyl)thiazolidine-2-carbonyloxy)ethyl)pyridine 1-oxide] gave an IC50 of under 0.1 nM.
Compound `COc1ccc(S(=O)(=O)N2CCC[C@H]2C(=O)O[C@@H](Cc2c(Cl)c[n+]([O-])cc2Cl)c2ccc(OC(F)F)c(OCC3CC3)c2)cc1C(=O)N(C)C` [Compound 124, 3,5-dichloro-4-((S)-2-(3-(cyclopropylmethoxy)-4-(difluoromethoxy)phenyl)-2-((S)-1-(3-(dimethylcarbamoyl)-4-methoxyphenylsulfonyl)pyrrolidine-2-carbonyloxy)ethyl)pyridine 1-oxide] has an IC50 of under 0.1 nM.
In the case of `CN(C)C(=O)c1ccc(S(=O)(=O)N2CCSC2C(=O)O[C@@H](Cc2c(Cl)c[n+]([O-])cc2Cl)c2ccc(OC(F)F)c(OCC3CC3)c2)cc1` (stereo partly drawn) [Compound 125, 3,5-dichloro-4-((2S)-2-(3-(cyclopropylmethoxy)-4-(difluoromethoxy)phenyl)-2-(3-(4-(dimethylcarbamoyl)phenylsulfonyl)thiazolidine-2-carbonyloxy)ethyl)pyridine 1-oxide], the IC50 is reported as 0.1 to 1 nM.
`CN1CCN(C(=O)c2ccc(S(=O)(=O)N3CCSC3C(=O)O[C@@H](Cc3c(Cl)c[n+]([O-])cc3Cl)c3ccc(OC(F)F)c(OCC4CC4)c3)cc2)CC1` (stereo partly drawn) [Compound 126, 3,5-dichloro-4-((2S)-2-(3-(cyclopropylmethoxy)-4-(difluoromethoxy)phenyl)-2-(3-(4-(4-methylpiperazine-1-carbonyl)phenylsulfonyl)thiazolidine-2-carbonyloxy)ethyl)pyridine 1-oxide] gave an IC50 of 0.1 to 1 nM.
Compound `COc1ccc(S(=O)(=O)N2CCSC2C(=O)O[C@@H](Cc2c(Cl)c[n+]([O-])cc2Cl)c2ccc(OC(F)F)c(OCC3CC3)c2)cc1C(=O)N1CCN(C)CC1` (stereo partly drawn) [Compound 127, 3,5-dichloro-4-((2S)-2-(3-(cyclopropylmethoxy)-4-(difluoromethoxy)phenyl)-2-(3-(4-methoxy-3-(4-methylpiperazine-1-carbonyl)phenylsulfonyl)thiazolidine-2-carbonyloxy)ethyl)pyridine 1-oxide] has an IC50 of 0.1 to 1 nM.
